Reference: patent publication US20220072131A1, “Dihydroxyphenyl Neurotransmitter Compounds, Compositions And Methods” (Auspex Pharmaceuticals, Inc., priority 2013, published 2022)

Experiments:
[1] = molecular target: T1, monoamine oxidase-A (MAO-A) (Homo sapiens, UniProt P21397); test: In vitro monoamine oxidase A degradation assay; format: in vitro ADME; details: incubated with MAO-A; compared to non-deuterated norepinephrine; disappearance of norepinephrine tracked
T1 sequence (P21397 1-527): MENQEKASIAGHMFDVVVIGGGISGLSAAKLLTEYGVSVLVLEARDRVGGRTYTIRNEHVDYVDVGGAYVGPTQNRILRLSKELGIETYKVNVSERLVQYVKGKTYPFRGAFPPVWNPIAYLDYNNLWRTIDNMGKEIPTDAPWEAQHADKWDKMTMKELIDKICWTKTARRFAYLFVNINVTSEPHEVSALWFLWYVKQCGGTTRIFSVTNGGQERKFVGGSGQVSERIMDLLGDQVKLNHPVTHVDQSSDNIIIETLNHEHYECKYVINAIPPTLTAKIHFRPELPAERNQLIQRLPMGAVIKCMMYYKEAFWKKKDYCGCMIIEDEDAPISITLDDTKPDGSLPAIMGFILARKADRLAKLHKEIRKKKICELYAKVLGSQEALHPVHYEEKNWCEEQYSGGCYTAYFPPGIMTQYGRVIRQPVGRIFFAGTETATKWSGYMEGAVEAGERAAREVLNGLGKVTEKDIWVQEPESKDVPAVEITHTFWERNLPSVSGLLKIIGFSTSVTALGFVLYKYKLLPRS
Description: Norepinephrine and d6-norepinephrine were incubated with monoamine oxidase-A (MAO-A).
The appearance of 3,4-dihydroxyphenylglycolaldehyde and the disappearance of norepinephrine were tracked. Compared to non-deuterated norepinephrine, d6-norepinephrine was associated with about a 5-fold decrease in digestion by MAO-A and about a 75% decrease in 3,4-dihydroxyphenylglycolaldehyde production.
The assay method is a batch alumina extraction followed by liquid chromatography with electrochemical detection. The post-column electrodes are arranged in series, with an oxidizing potential at the first electrode and reducing potential at the third. This series arrangement of flow-through electrodes reduces the solvent front substantially and improves the sensitivity and specificity for detecting reversibly oxidized species such as catechols. 3,4-Dihydroxyphenylglycolaldehyde is identified by a broad, short peak within the solvent front.

[2] = tested on: anesthetized rats; test: Change of mean arterial blood pressure in anesthetized rats following intravenous administration; format: in vivo, rat; details: 2 mg/kg, in comparison to the same dose of L-threo-DOPS
Description: Change of Mean Arterial Blood Pressure in Anesthetized Rats Following Intravenous Administration of 2 mg/kg L-Threo-2,3-Dideutero POPS in Comparison to the Same Dose of L-Threo-DOPS

decrease in digestion by MAO-A [1] | SMILES | Change of mean arterial blood pressure [2]
~5 fold | [2H]c1c([2H])c([C@@]([2H])(O)C([2H])([2H])N)c([2H])c(O)c1O [d6-norepinephrine] | 
 | [2H]C(N)(C(=O)O)C([2H])(O)c1ccc(O)c(O)c1 [L-threo-2,3-dideutero DOPS] | enhanced and prolonged increase
